Among the data in US11365193B2, “Oxadiazole compound and fungicide for agricultural and horticultural use” (Nippon Soda Co., Ltd., priority 2017, dated 2022) are melting point values, retold here.

Each structure is given as a SMILES string.

`O=c1ccccn1-c1ccc(-c2noc(C(F)(F)F)n2)cc1` [Compound 1-2] came in with a melting point of 130 to 133 °C.

Take `O=c1c2ccccc2ncn1Cc1ccc(-c2noc(C(F)(F)F)n2)cc1` [Compound 1-3]: the melting point was in the range of 178 to 180 °C.

With `O=c1c2ccccc2ncn1-c1ccc(-c2noc(C(F)(F)F)n2)cc1` [Compound 1-4], the melting point is 233 to 235 °C.

On to `O=c1cccnn1-c1ccc(-c2noc(C(F)(F)F)n2)cc1` [Compound 1-5], for which the melting point fell in the range of 97 to 100 °C.

In the case of `O=c1cc2ccccc2cn1Cc1ccc(-c2noc(C(F)(F)F)n2)cc1` [Compound 1-6], the melting point is 165 to 168 °C.

`Cc1ccn(-c2ccc(-c3noc(C(F)(F)F)n3)cc2)c(=O)c1` [Compound 1-8]: the melting point lay in the range of 151 to 154 °C.

`Cc1ccc(=O)n(-c2ccc(-c3noc(C(F)(F)F)n3)cc2)n1` [Compound 1-9] registered a melting point of 78 to 83 °C.

As to `O=c1c2ccccc2cnn1-c1ccc(-c2noc(C(F)(F)F)n2)cc1` [Compound 1-10], the melting point was in the range of 141 to 144 °C.

Turning to `O=c1c2ccccc2cnn1Cc1ccc(-c2noc(C(F)(F)F)n2)cc1` [Compound 1-11], the melting point lay within 133 to 136 °C.

`O=c1cccnn1CC1(c2ccc(-c3noc(C(F)(F)F)n3)cc2)OCCO1` [Compound 1-14]: the melting point was 105 to 107 °C.

`O=C(Cn1ncccc1=O)c1ccc(-c2noc(C(F)(F)F)n2)cc1` [Compound 1-15] registered a melting point of 122 to 125 °C.

For the compound `CSc1cnn(-c2ccc(-c3noc(C(F)(F)F)n3)cc2)c(=O)c1` [Compound 1-16], the melting point lay in the range of 151 to 153 °C.

Take `C[S+]([O-])c1cnn(-c2ccc(-c3noc(C(F)(F)F)n3)cc2)c(=O)c1` (stereo not shown) [Compound 1-17]: the melting point lay within 145 to 147 °C.

As to `CS(=O)(=O)c1cnn(-c2ccc(-c3noc(C(F)(F)F)n3)cc2)c(=O)c1` [Compound 1-18], the melting point lay within 186 to 188 °C.

With `Cc1noc2cnn(Cc3ccc(-c4noc(C(F)(F)F)n4)cc3)c(=O)c12` [Compound 1-21], the melting point lay in the range of 158 to 160 °C.

`Cc1nn(C)c2cnn(Cc3ccc(-c4noc(C(F)(F)F)n4)cc3)c(=O)c12` [Compound 1-22] yielded a melting point of 187 to 190 °C.

`Cc1nc2c(cnn2C)c(=O)n1Cc1ccc(-c2noc(C(F)(F)F)n2)cc1` [Compound 1-23] had a melting point of 118 to 120 °C.

In turn, `Cn1ncc2c(=O)n(Cc3ccc(-c4noc(C(F)(F)F)n4)cc3)cnc21` [Compound 1-24] yielded a melting point of 225 to 228 °C.

Compound `O=c1c2c(ncn1Cc1ccc(-c3noc(C(F)(F)F)n3)cc1)CCC2` [Compound 1-25] had a melting point of 165 to 168 °C.

In turn, `O=c1c2c(ncn1Cc1ccc(-c3noc(C(F)(F)F)n3)cc1)CCCC2` [Compound 1-26] returned a melting point of 157 to 160 °C.

`O=C(C(=NOCC(F)(F)F)c1ccc(-c2noc(C(F)(F)F)n2)cc1)n1ncccc1=O` [Compound 1-29] came in with a melting point of 82 to 98 °C.

The compound `Cc1nn(C)c2nc(C)n(Cc3ccc(-c4noc(C(F)(F)F)n4)cc3)c(=O)c12` [Compound 1-30] registered a melting point of 163 to 166 °C.

`O=c1cc2c(nn1Cc1ccc(-c3noc(C(F)(F)F)n3)cc1)CCC2` [Compound 1-31] yielded a melting point of 94 to 97 °C.

For the compound `O=c1c2c(cnn1Cc1ccc(-c3noc(C(F)(F)F)n3)cc1)OCCC2` [Compound 1-32], the melting point lay within 87 to 89 °C.

With `O=c1cccnn1CCc1ccc(-c2noc(C(F)(F)F)n2)cc1` [Compound 1-33], the melting point is 74 to 80 °C.

`Cc1nc2c(c(=O)n1Cc1ccc(-c3noc(C(F)(F)F)n3)cc1)CCCC2` [Compound 1-34]: the melting point was in the range of 132 to 135 °C.

Regarding `O=c1cccnn1CC(O)c1ccc(-c2noc(C(F)(F)F)n2)cc1` (stereo not shown) [Compound 1-36], the melting point fell in the range of 119 to 121 °C.

Consider `CON=CCOc1ncn(Cc2ccc(-c3noc(C(F)(F)F)n3)cc2)c(=O)c1Cl` [Compound 1-37], for which the melting point lay in the range of 201 to 203 °C.

Turning to `CON=CCOc1cc(=O)n(Cc2ccc(-c3noc(C(F)(F)F)n3)cc2)cn1` [Compound 1-38], the melting point is 143 to 148 °C.

In turn, `CCON=CCOc1cc(=O)n(Cc2ccc(-c3noc(C(F)(F)F)n3)cc2)cn1` [Compound 1-40] returned a melting point of 139 to 142 °C.

Take `COCCON=CCOc1cc(=O)n(Cc2ccc(-c3noc(C(F)(F)F)n3)cc2)cn1` [Compound 1-41]: the melting point lay in the range of 94 to 96 °C.

On to `O=c1cc(OCC=NOC2CCCCO2)ncn1Cc1ccc(-c2noc(C(F)(F)F)n2)cc1` (stereo not shown) [Compound 1-42], for which the melting point fell in the range of 103 to 106 °C.

Regarding `O=c1cc(OCC=NOCc2ccccc2)ncn1Cc1ccc(-c2noc(C(F)(F)F)n2)cc1` [Compound 1-44], the melting point lay in the range of 78 to 80 °C.

Consider `O=c1cc(OCC=NOCC(F)F)ncn1Cc1ccc(-c2noc(C(F)(F)F)n2)cc1` [Compound 1-45], for which the melting point lay within 111 to 115 °C.

The compound `N#CCON=CCOc1cc(=O)n(Cc2ccc(-c3noc(C(F)(F)F)n3)cc2)cn1` [Compound 1-46] had a melting point of 131 to 133 °C.

For the compound `Cl.O=c1c2c(ncn1Cc1ccc(-c3noc(C(F)(F)F)n3)cc1)CNCC2` [Compound 1-47], the melting point lay in the range of 192 to 195 °C.

Turning to `O=c1cc(N2CCOCC2)ncn1Cc1ccc(-c2noc(C(F)(F)F)n2)cc1` [Compound 1-52], the melting point was in the range of 235 to 237 °C.

`CON=C1CN(C(=O)c2ccc(-c3noc(C(F)(F)F)n3)cc2)C1` [Compound 2] showed a melting point of 162 to 165 °C.

With `CCON=C1CN(C(=O)Cc2ccc(-c3noc(C(F)(F)F)n3)cc2)C1` [Compound 5], the melting point lay in the range of 130 to 134 °C.

In the case of `CCON=C1CCN(C(=O)Cc2ccc(-c3noc(C(F)(F)F)n3)cc2)CC1` [Compound 6], the melting point lay in the range of 86 to 88 °C.

`CON=C1CN(C(=O)Cc2ccc(-c3noc(C(F)(F)F)n3)cc2)C1` [Compound 7]: the melting point lay in the range of 172 to 176 °C.

`CON=C1CCN(C(=O)Cc2ccc(-c3noc(C(F)(F)F)n3)cc2)CC1` [Compound 8] came in with a melting point of 73 to 76 °C.

In turn, `O=C(Cc1ccc(-c2noc(C(F)(F)F)n2)cc1)N1CC(=NOCC(F)(F)F)C1` [Compound 9] had a melting point of 126 to 129 °C.

`O=C(Cc1ccc(-c2noc(C(F)(F)F)n2)cc1)N1CCC(=NOCC(F)(F)F)CC1` [Compound 10]: the melting point fell in the range of 84 to 86 °C.

Compound `CCON=C1CCN(C(=O)Cc2cccc(-c3noc(C(F)(F)F)n3)c2)CC1` [Compound 11] showed a melting point of 83 to 86 °C.

In turn, `CCSCON=C1CN(C(=O)Cc2ccc(-c3noc(C(F)(F)F)n3)cc2)C1` [Compound 12] came in with a melting point of 73 to 75 °C.

For `O=C(Cc1ccc(-c2noc(C(F)(F)F)n2)cc1)N1CCC(=NOC2CCCCO2)CC1` (stereo not shown) [Compound 15], the melting point fell in the range of 104 to 106 °C.

`O=C(Cc1ccc(-c2noc(C(F)(F)F)n2)cc1)N1CC(=NOC2CCCCO2)C1` (stereo not shown) [Compound 16]: the melting point is 82 to 83 °C.

Consider `O=C(Cc1ccc(-c2noc(C(F)(F)F)n2)cc1)N1CC(=NOCc2ccccc2)C1` [Compound 17], for which the melting point lay within 139 to 140 °C.

In turn, `COCCON=C1CN(C(=O)Cc2ccc(-c3noc(C(F)(F)F)n3)cc2)C1` [Compound 19] had a melting point of 114 to 116 °C.

For `N#CCON=C1CCN(C(=O)Cc2ccc(-c3noc(C(F)(F)F)n3)cc2)CC1` [Compound 20], the melting point fell in the range of 126 to 128 °C.

Compound `N#CCON=C1CN(C(=O)Cc2ccc(-c3noc(C(F)(F)F)n3)cc2)C1` [Compound 21] returned a melting point of 125 to 126 °C.

Regarding `CC(C)ON=C1CCN(C(=O)Cc2ccc(-c3noc(C(F)(F)F)n3)cc2)CC1` [Compound 22], the melting point is 96 to 100 °C.

`O=C(Cc1ccc(-c2noc(C(F)(F)F)n2)cc1)N1CCC(=NO)CC1` [Compound 25]: the melting point fell in the range of 191 to 192 °C.

In turn, `N#CCCON=C1CCN(C(=O)Cc2ccc(-c3noc(C(F)(F)F)n3)cc2)CC1` [Compound 26] yielded a melting point of 71 to 72 °C.

In turn, `CSCCON=C1CCN(C(=O)Cc2ccc(-c3noc(C(F)(F)F)n3)cc2)CC1` [Compound 27] returned a melting point of 68 to 69 °C.

For the compound `CCON=C1CN(C(=O)C(=O)c2ccc(-c3noc(C(F)(F)F)n3)cc2)C1` [Compound 30], the melting point was in the range of 139 to 141 °C.

`CCON=C1CN(C(=O)C(=NOC)c2ccc(-c3noc(C(F)(F)F)n3)cc2)C1` [Compound 31] showed a melting point of 147 to 149 °C.

Turning to `CCON=C1CCN(C(=O)Cc2ccc(-c3noc(C(F)(F)F)n3)cc2)CC1SC` (stereo not shown) [Compound 32], the melting point was in the range of 80 to 82 °C.

For the compound `CON=C1CCN(C(=O)Cc2ccc(-c3noc(C(F)(F)F)n3)cc2)CC1SC` (stereo not shown) [Compound 33], the melting point lay within 120 to 121 °C.

In turn, `CCON=C1CCN(C(=O)Cc2ccc(-c3noc(C(F)(F)F)n3)cc2)CC1S(C)(=O)=O` (stereo not shown) [Compound 34] yielded a melting point of 128 to 130 °C.

Take `O=C(Cc1ccc(-c2noc(C(F)(F)F)n2)cc1)N1CC(=NOCC(F)F)C1` [Compound 41]: the melting point was in the range of 140 to 141 °C.

In the case of `CCON=C1CN(C(=O)C(SC)c2ccc(-c3noc(C(F)(F)F)n3)cc2)C1` (stereo not shown) [Compound 44], the melting point lay in the range of 108 to 110 °C.

For the compound `CCCON=C1CN(C(=O)C(SCC)c2ccc(-c3noc(C(F)(F)F)n3)cc2)C1` (stereo not shown) [Compound 45], the melting point was 83 to 85 °C.

By melting point is commonly meant the temperature of the solid-liquid transition.
